Results from patent publication US20090275632A1, “Methods of diagnosis and treatment” (OncoMethylome Sciences SA, priority 2006, published 2009).

Experiments:
miR-124a CpG island = assay: Chromatin immunoprecipitation assay for histone modification marks and methyl-CpG binding domain proteins; type: cell-based, human; settings: HCT-116 cells, 5-aza-2-deoxycytidine (1 µM) for 72 h
Experimental: Standard ChIP assays were performed as previously described (3). In brief, cells were treated with 1% formaldehyde for 15 min. Then, chromatin was sheared with a Bioruptor™ (Diagenode) to an average length of 0.4-0.8 kb for this analysis. The following antibodies were used: anti-MeCP2 (ab3752), anti-MBD2 (ab3754), and anti-trimethyl-K4 histone H3 (ab8580) (ab1220) (Abcam) and anti-acetyl H3 (06-599) and anti-acetyl H4 (06-598) (Upstate biotechnologies). PCR amplification was performed in 20 μl with specific primers for each of the analyzed promoters.
for miR-124a1 5′-CM AGA GCC TTT GGA AGA CG-3′ (sense) (SEQ ID NO: 40) and 5′-GGAAGAGGGGTGGGTAGAAG-3′ (antisense) (SEQ ID NO: 41), for miR-124a2 5′-GCGTGGTCCTTAAAAACCTG-3′ (sense) (SEQ ID NO: 42) and 5′-CCATGCCATTTACAGCACAC-3′ (antisense) (SEQ ID NO: 43); and for miR-124a3 5′-GGA GM GTG TGG GCT CCT C-3′ (sense) (SEQ ID NO: 44) and 5′-AAT CM GGT CCG CTG TGA AC-3′ (antisense) (SEQ ID NO:45). For each promoter, the sensitivity of PCR amplification was evaluated on serial dilutions of total DNA collected after sonication (input fraction). PCR amplifications were carried out with a variable number of cycles at 94° C. for 30 s, 60° C. for 30 s and 72° C. for 30 s. The amplified DNA was separated on 2% agarose gel and visualized with ethidium bromide.

miR-124a [1] = assay: Expression of mature miR-124a by quantitative RT-PCR in HCT-116 cells; type: cell-based, human; settings: 5-aza-2-deoxycytidine (1 µM) for 72 h
Experimental: GAPDH was used as internal control. PCR products were analyzed in a 3% agarose gel. Realtime PCR analysis of miRNAs was performed as previously described (Biotechniques 39:519-525). In brief, total RNA was isolated from cell lines or tissues using Trizol reagent and the small RNA fraction was further isolated using the miRVANA kit (Ambion). 500 ng of the small RNA fraction was polyadenylated by poly(A) polymerase (PAP, Ambion) at 37° C. for 1 hr in a 6 uL reaction. After phenol-chloroform extraction and ethanol precipitation the polyadenylated small RNAs were reversed transcribed according to the manufacturer's protocols using 200U SuperScript-II Reverse Transcriptase (RT, Invitrogen) and 0.5 ug poly(T) adapter (GCG AGC ACA GM TTAATACGACTCACTATAGGTTTTTTTTTT TTV N) (SEQ ID NO:36). The small cDNAs were then treated with RNAse H at 37° C. for 1 hr and finally diluted 240 fold. Negative controls were included in both PAP and RT reactions. […] Finally, the melting temperature for each miRNA was experimentally determined from the thermal dissociation curves using ABI Prism 7900HT (Applied Biosystems, Foster City, Calif., USA). […]
Each set of PCR reactions included a dilution series of a reference cDNA to be used for quantification.

Rb = assay: Western blot for phosphorylated Rb (P-Rb-S807/811) in HCT-116 cells; type: cell-based, human; settings: AZA 1 µM 72 h, miR-124a precursor 100 nM RNA duplexes, 48 h after transfection
Source text: (§1) Analyses of CDK6 and phosphorylated Rb expression by Western blot, immunohistochemistry and RT-PCR. We collected cells by centrifugation and washed cell pellets twice with phosphate-buffered saline buffer. Total extracts were fractionated on a SDS-PAGE gel and transferred to a polyvinylidene difluoride membrane with […] (Immobilon PSQ, Millipore). The membranes were blocked in 5% milk PBS-T (phosphate-buffered saline with 0.1% Tween-20) and immunoprobed with antibodies against CDK6 (1:1000; Cell Signaling) and P-Rb-S807/811 (1:1000; Cell Signaling). An antibody to β-actin (1:5000; Sigma) was used as a loading control. Immunoreactive bands were visualized using a chemiluminescent substrate (Amersham) after incubation of the membrane with secondary antibodies conjugated to horseradish peroxidase.

CDK6 mRNA = assay: RT-PCR analyses of CDK6 mRNA in HCT-116 cells; type: cell-based, human; settings: AZA 1 µM 72 h, miR-124a precursor 100 nM RNA duplexes, 48 h after transfection
CDK6 = assay: Western blot for CDK6 in HCT-116 cells; type: cell-based, human; settings: AZA 1 µM 72 h, miR-124a precursor 100 nM RNA duplexes, 48 h after transfection
Source text: as §1

miR-124a [2] = assay: Expression of precursor miR-124a by conventional RT-PCR in HCT-116 cells; type: cell-based, human; settings: 5-aza-2-deoxycytidine (1 µM) for 72 h
Experimental: GAPDH was used as internal control. PCR products were analyzed in a 3% agarose gel. Realtime PCR analysis of miRNAs was performed as previously described (Biotechniques 39:519-525). In brief, total RNA was isolated from cell lines or tissues using Trizol reagent and the small RNA fraction was further isolated using the miRVANA kit (Ambion). 500 ng of the small RNA fraction was polyadenylated by poly(A) polymerase (PAP, Ambion) at 37° C. for 1 hr in a 6 uL reaction. After phenol-chloroform extraction and ethanol precipitation the polyadenylated small RNAs were reversed transcribed according to the manufacturer's protocols using 200U SuperScript-II Reverse Transcriptase (RT, Invitrogen) and 0.5 ug poly(T) adapter (GCG AGC ACA GM TTAATACGACTCACTATAGGTTTTTTTTTT TTV N) (SEQ ID NO:36). The small cDNAs were then treated with RNAse H at 37° C. for 1 hr and finally diluted 240 fold. Negative controls were included in both PAP and RT reactions. Moreover, two additional RT reactions were performed using half and double the input of polyadenylated small RNAs to ensure the linearity of the reverse transcription step. Finally, the melting temperature for each miRNA was experimentally determined from the thermal dissociation curves using ABI Prism 7900HT (Applied Biosystems, Foster City, Calif., USA). […]

miR-124a [3] = assay: Expression analyses of miR-124a by RT-PCR in MCF-7 breast cancer cell line; settings: MCF-7 cells (miR-124a methylated)
[4] = listed as DNA demethylating agent

Nc1ncn([C@H]2C[C@H](O)[C@@H](CO)O2)c(=O)n1 [AZA, 5-aza-2′-deoxycytidine]
histone modification marks linked to transcriptional activity (acetylation of histones H3 and H4, trimethylation of lysine 4 of histone H3) in the miR-124a CpG island (miR-124a CpG island): the opposite scenario is observed
occupancy of the miR-124a CpG island by MBDs (MeCP2 and MBD2) (miR-124a CpG island): the opposite scenario is observed
histone modification marks linked to transcriptional activity (acetylation of histones H3 and H4, trimethylation of lysine 4 of histone H3) in the miR-124a CpG island (miR-124a CpG island; listed as demethylating agent): emergence of the histone marks of active transcription
occupancy of the miR-124a CpG island by MBDs (MeCP2 and MBD2) (miR-124a CpG island; listed as demethylating agent): release of binding by MBDs
mature miR-124a expression (miR-124a [1]): miR-124a upregulation
mature miR-124a expression (miR-124a [1]; [4]): restored
phosphorylation of Rb in the residues 807 and 811 (Rb; [4]): hypophosphorylated
phosphorylation of Rb in the residues 807 and 811 (Rb; listed as demethylating drug): reduced Rb phosphorylation
CDK6 mRNA expression level (CDK6 mRNA): do not demonstrate any change
CDK6 mRNA expression level (CDK6 mRNA; listed as demethylating agent): no difference
CDK6 protein level (CDK6): reduction in CDK6 levels
CDK6 protein level (CDK6; listed as demethylating agent): CDK6 downregulation
precursor miR-124a expression (miR-124a [2]): miR-124a upregulation
precursor miR-124a expression (miR-124a [2]; [4]): restored
miR-124a expression (miR-124a [3]): miR-124a upregulation
